Measured values from PubChem BioAssay (NCI).
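Abbreviation: GI50, concentration required for 50% inhibition of growth. The concentration for full growth arrest is given as TGI.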

Experiments:
Test in all cases: DTP human tumour cell line panel, 384-well format; in the data active = GI50 below about 0.43 µM; inactive = the rest
NCI-H226 lung = tested on: NCI-H226 lung
NCI-H23 lung = tested on: NCI-H23 lung
NCI-H322M lung = tested on: NCI-H322M lung
NCI-H522 lung = tested on: NCI-H522 lung
NCI/ADR-RES ovarian = tested on: NCI/ADR-RES ovarian
OVCAR-3 ovarian = tested on: OVCAR-3 ovarian
OVCAR-4 ovarian = tested on: OVCAR-4 ovarian
OVCAR-5 ovarian = tested on: OVCAR-5 ovarian
OVCAR-8 ovarian = tested on: OVCAR-8 ovarian
PC-3 prostate = tested on: PC-3 prostate
RPMI-8226 leukemia = tested on: RPMI-8226 leukemia
RXF 393 renal = tested on: RXF 393 renal
SF-268 CNS = tested on: SF-268 CNS
SF-295 CNS = tested on: SF-295 CNS
SF-539 CNS = tested on: SF-539 CNS
SK-MEL-28 melanoma = tested on: SK-MEL-28 melanoma
SK-OV-3 ovarian = tested on: SK-OV-3 ovarian
SN12C renal = tested on: SN12C renal
SNB-19 CNS = tested on: SNB-19 CNS
SNB-75 CNS = tested on: SNB-75 CNS
SW-620 colon = tested on: SW-620 colon
T-47D breast = tested on: T-47D breast
TK-10 renal = tested on: TK-10 renal
U251 glioblastoma = tested on: U251 glioblastoma
UACC-257 melanoma = tested on: UACC-257 melanoma
UACC-62 melanoma = tested on: UACC-62 melanoma
UO-31 renal = tested on: UO-31 renal

Nc1nc(Cl)nc2c1ncn2C1CC(O)C(CO)O1 (centres undefined)
12.2 µM: TGI (SF-539 CNS)
> 100 µM: TGI (NCI-H322M lung) | TGI (NCI-H522 lung) | TGI (NCI/ADR-RES ovarian) | TGI (OVCAR-3 ovarian) | TGI (OVCAR-4 ovarian) | TGI (OVCAR-5 ovarian) | TGI (OVCAR-8 ovarian) | TGI (PC-3 prostate) | TGI (RXF 393 renal) | TGI (SK-MEL-28 melanoma) | TGI (SK-OV-3 ovarian) | TGI (SNB-19 CNS) | TGI (SW-620 colon) | TGI (T-47D breast) | TGI (TK-10 renal) | TGI (UACC-257 melanoma)
0.926 µM: TGI (SN12C renal)
87.8 µM: TGI (SNB-75 CNS)
1.61 µM: TGI (RPMI-8226 leukemia)
19.8 µM: TGI (SF-268 CNS)
3.85 µM: TGI (UO-31 renal)
34.1 µM: TGI (SF-295 CNS)
18.2 µM: TGI (NCI-H226 lung)
inactive: GI50 (NCI-H226 lung) 3.58 µM | GI50 (NCI-H322M lung) 37.5 µM | GI50 (NCI-H522 lung) 0.83 µM | GI50 (OVCAR-3 ovarian) 2.09 µM | GI50 (OVCAR-4 ovarian) > 100 µM | GI50 (OVCAR-5 ovarian) 0.764 µM | GI50 (PC-3 prostate) > 100 µM | GI50 (RXF 393 renal) 47.8 µM | GI50 (SF-268 CNS) 2.89 µM | GI50 (SF-295 CNS) 11.2 µM | GI50 (SF-539 CNS) 2.63 µM | GI50 (SK-MEL-28 melanoma) 0.552 µM | GI50 (SK-OV-3 ovarian) 3.01 µM | GI50 (SNB-19 CNS) 0.738 µM | GI50 (SNB-75 CNS) 19.9 µM | GI50 (SW-620 colon) 0.712 µM | GI50 (T-47D breast) 6.73 µM | GI50 (TK-10 renal) > 100 µM | GI50 (U251 glioblastoma) 0.825 µM | GI50 (UACC-257 melanoma) 1.39 µM
15.8 µM: TGI (U251 glioblastoma)
0.481 µM: TGI (NCI-H23 lung)
0.501 µM: TGI (UACC-62 melanoma)
active: GI50 (NCI-H23 lung) 0.212 µM | GI50 (NCI/ADR-RES ovarian) 0.135 µM | GI50 (OVCAR-8 ovarian) 0.0356 µM | GI50 (RPMI-8226 leukemia) 0.372 µM | GI50 (SN12C renal) 0.122 µM | GI50 (UACC-62 melanoma) 0.177 µM | GI50 (UO-31 renal) 0.372 µM
